Target: 5-hydroxytryptamine receptor 6 (Mus musculus, UniProt Q9R1C8)
Sequence (Q9R1C8 whole entry): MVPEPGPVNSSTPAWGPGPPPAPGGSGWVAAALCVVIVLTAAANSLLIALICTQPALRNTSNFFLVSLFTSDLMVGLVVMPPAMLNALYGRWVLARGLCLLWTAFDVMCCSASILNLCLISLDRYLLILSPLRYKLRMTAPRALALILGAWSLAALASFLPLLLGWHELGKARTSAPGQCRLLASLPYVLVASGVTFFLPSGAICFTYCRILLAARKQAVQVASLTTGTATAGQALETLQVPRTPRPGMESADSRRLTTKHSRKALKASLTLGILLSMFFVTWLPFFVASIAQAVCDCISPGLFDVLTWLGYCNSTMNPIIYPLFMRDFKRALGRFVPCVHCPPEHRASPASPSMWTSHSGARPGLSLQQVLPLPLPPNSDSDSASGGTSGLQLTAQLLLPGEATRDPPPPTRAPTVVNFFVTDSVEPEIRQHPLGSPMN

SMILES | Ki [nM]
Cc1[nH]c2ccc(O)cc2c1CCN | 398
O=C(c1ccc(F)cc1)C1CCN(CCn2c(=O)[nH]c3ccccc3c2=O)CC1 [3-(2-{4-[(4-fluorophenyl)carbonyl]piperidin-1-yl}ethyl)-1,2,3,4-tetrahydroquinazoline-2,4-dione] | 1000
Cn1cc(CCN)c2cc(O)ccc21 [5-HT,omega-N-Me] | 2000
CN1CCN(C2=c3ccccc3=Nc3ccc(Cl)cc3N2)CC1 [6-chloro-10-(4-methylpiperazin-1-yl)-2,9-diazatricyclo[9.4.0.0^{3,8}]pentadeca-1,3(8),4,6,10,12,14-heptaene] | 31.6
CN1CCN2c3ccccc3Cc3ccccc3[C@H]2C1 [MIANSERIN (+)] | 19.9
CN1CCc2cc(Cl)c(O)cc2[C@@H](c2ccccc2)C1 [SCH 23390,R(+)] | 2510
NCCc1c[nH]c2ccc(O)cc12 [[3H]-5-HT] | 39.8
CSc1ccc2c(c1)C(N1CCN(C)CC1)Cc1ccccc1S2 (stereo not drawn) [methanesulfonic acid;1-methyl-4-(3-methylsulfanyl-5,6-dihydrobenzo[b][1]benzothiepin-5-yl)piperazine] | 1.99

— BindingDB's records for PubMed 8169832 (University of Pennsylvania, 1994)
